Experimental findings from patent US20100273876A1, “ANTIBACTERIAL FORMULATION COMPRISING A DIALKYL SULPHOSUCCINATE AND A CARBANILIDE ANTIBACTERIAL AGENT” (priority 2007, published 2010) are described below.

≈ marks a conversion by molar mass, not a printed value. Where two headings read alike, the source gives them in different places.

The test system of one assay is C. striatum NCTC 764. The experiment in a line: (S)DDA disc diffusion. In kind it is cell-based, Corynebacterium striatum. The conditions noted are these: for DDA: 200 μg per disc. On the procedure: (§1) Several Corynebacterium test species were also used in this study, namely C. mucifaciens ATCC 700355, C. striatum NCTC 764, C. xerosis NCTC 11861 and C. jeikeium NCTC 11915. These Gram-positive pathogens are closely related to organisms (aerobic diphtheroids of the genus Corynebacterium) that cause body odour. C. mucifaciens and C. striatum were cultured and maintained on Mueller-Hinton Medium (agar and broth) and were incubated aerobically at 37° C. for 24 hours. C. xerosis and C. jeikeium were cultured and maintained on Mueller-Hinton Medium containing 5% (v/v) lysed horse blood (agar and broth) and were incubated aerobically at 37° C. for 72 hours. A sterile paper disc was impregnated with a sample of the test compound in a suitable solvent and 30 minutes allowed for the solvents to evaporate (where possible). The disc was then placed on an agar plate onto which the test micro-organism had been inoculated. The plate was then incubated under the conditions described above, following which it was examined visually for signs of microbial growth. If the test compound had antimicrobial activity, a circular zone of no growth would be obtained around the disc. The diameter of this zone of “inhibition” was measured using a ProtoCOL™ automated zone sizer (Synbiosis, Cambridge, UK). In general, a greater diameter and/or area of the zone of inhibition indicates a greater antimicrobial activity in the relevant test compound, although other factors such as test compound mobility through the agar gel may also influence the result. Two test a compounds A and B were placed on a single paper disc and the above described DDA procedure repeated. An increase in diameter of the zone of inhibition, compared to the greater of the zone diameters for the two compounds individually, was taken to indicate potential antimicrobial synergy. In practical terms, an increase of greater than 5 mm could be treated as significant. The activities of DOSS and TCC were determined, using (S)DDAs, against the test organisms C. mucifaciens ATCC 700355, C. striatum NCTC 764, C. xerosis NCTC 11861 and C. jeikeium NCTC 11915. 200 μg of the DOSS and/or the TCC were loaded onto each disc. All the experiments were conducted in triplicate.
On the technique in general: A growth-free zone around the sample is the usual read-out of agar diffusion tests.

A further assay deals with C. jeikeium NCTC 11915. The assay is described as follows: (S)DDA disc diffusion. The conditions noted are these: for DDA: 200 μg per disc. In kind it is cell-based, Corynebacterium jeikeium. As to the method: as §1
In assay [1] the test system is P. acnes NCTC 737. The experiment in a line: Minimum bactericidal concentration (MBC) assay. It is filed as cell-based, Propionibacterium acnes. On the procedure: The propionibacteria were cultured and maintained on Wilkins-Chalgren Anaerobe Medium (agar and broth) at pH 6.0; all cultures were incubated anaerobically at 37° C. for 72 hours. This assay, normally carried out after an MIC assay, determines the rnininiurn concentration of a compound that is lethal to the micro-organism being tested. […] These samples were then individually sub-cultured on antibiotic-free agar medium, under the incubation conditions described above. Following incubation they were examined visually for microbial growth.

For assay [2], the system named is P. acnes NCTC 737. The experiment in a line: Minimum inhibitory concentration (MIC) assay, liquid medium. In kind it is cell-based, Propionibacterium acnes. As to the method:
The propionibacteria were cultured and maintained on Wilkins-Chalgren Anaerobe Medium (agar and broth) at pH 6.0; all cultures were incubated anaerobically at 37° C. for 72 hours.
This is a standard international method for quantitatively assessing the antimicrobial activity of a compound in a liquid medium. The method used a sterile 96-well microtitre plate, capable of holding about 200 μl of liquid per well. The wells contained liquid culture medium and ranges of decreasing concentrations of the relevant test compound in doubling dilutions (eg, 1000, 500, 250, 125 . . . μg/ml, etc. down to 0.49 μg/ml). The culture media were as described above.
The wells were inoculated with a liquid suspension of freshly grown micro-organism and incubated under the conditions described above. After incubation, the microtitre plate was examined visually (with the aid of a light box) for cloudiness in each well, which would indicate microbial growth. The MIC value was recorded as the lowest concentration of test compound required to inhibit microbial growth, ie, the lowest concentration for which the liquid in the well remained clear.
The assays included both negative (culture medium with no micro-organisms) and positive (culture medium plus diluting solvent plus micro-organism) controls.

Assay [3] concerns Bact. fragilis ATCC 25285. The experiment in a line: (S)DDA disc diffusion. The conditions noted are these: 200 μg per disc. It is filed as cell-based, Bacteroides fragilis. On the procedure: (§2) A sterile paper disc was impregnated with a sample of the test compound in a suitable solvent and 30 minutes allowed for the solvents to evaporate (where possible). The disc was then placed on an agar plate onto which the test micro-organism had been inoculated. The plate was then incubated under the conditions described above, following which it was examined visually for signs of microbial growth. If the test compound had antimicrobial activity, a circular zone of no growth would be obtained around the disc. The diameter of this zone of “inhibition” was measured using a ProtoCOL™ automated zone sizer (Synbiosis, Cambridge, UK). In general, a greater diameter and/or area of the zone of inhibition indicates a greater antimicrobial activity in the relevant test compound, although other factors such as test compound mobility through the agar gel may also influence the result.
Two test a compounds A and B were placed on a single paper disc and the above described DDA procedure repeated. […]
The activities of DOSS and TCC were determined, using (S)DDAs, against a panel of further test micro-organisms, namely B. cereus ATCC 11778, Bact. fragilis ATCC 25285, Clost. difficile […] and E. faecalis ATCC 29212. […]

Another assay relates to Strep. mutans ATCC 25175. The experiment in a line: (S)DDA disc diffusion. In kind it is cell-based, Streptococcus mutans. On the procedure:
The S. mutans was cultured and maintained on Wilkins-Chalgren Anaerobe Medium (agar and broth) at pH 7.0 supplemented with 1 g/L glucose; all cultures were incubated at 37° C. for 48 h in an atmosphere containing 5% CO2.
as §2
Two test a compounds A and B were placed on a single paper disc and the above described DDA procedure repeated. An increase in diameter of the zone of inhibition, compared to the greater of the zone diameters for the two compounds individually, was taken to indicate potential antimicrobial synergy. In practical terms, an increase of greater than 5 mm could be treated as significant.
For the (S)DDA experiments; 200 μg of the DOS salts and/or the TCC were loaded onto each disc for Por. gingivalis experiments. For the Strep. mutans experiments, 200 μg of the TCC and 50 μg of DOSS were used on each disc. All the experiments were conducted in triplicate.

The subject of assay [4] is C. mucifaciens ATCC 700355. The experiment in a line: (S)DDA disc diffusion. In kind it is cell-based, Corynebacterium mucifaciens. Particulars: for DDA: 200 μg per disc. As to the method:
as §1

The subject of another assay is C. xerosis NCTC 11861. The assay is described as follows: (S)DDA disc diffusion. It is filed as cell-based, Corynebacterium xerosis. Particulars: for DDA: 200 μg per disc. On the procedure:
as §1

Where [5] appears, read: 200 μg DOSS + 200 μg TCC on one disc.
Where [6] appears, read: 200 μg TCC or 50 μg DOSS per disc.

For orientation: MBC means the lowest tested concentration that kills the bacteria rather than only halting them. For orientation: MIC means the lowest concentration found to suppress growth. For the compound dioctyl sodium sulphosuccinate [DOSS], the SDDA area increase in the assay on C. striatum NCTC 764 is on record as 70.79%; in the assay with C. jeikeium NCTC 11915 it was “∞”; with Strep. mutans ATCC 25175 it was 42.61%; in assay [4], 165.45%; with C. xerosis NCTC 11861 it was 145.4%. Moreover, the SDDA increase was 6.0 mm in the assay on C. striatum NCTC 764; 13.81 mm with C. jeikeium NCTC 11915; 4.68 mm in the assay on Strep. mutans ATCC 25175; 8.13 mm in assay [4]; 6.6 mm in the assay with C. xerosis NCTC 11861. Also, the “SDDA with TCC” value is listed as 25.57 mm in the assay with C. striatum NCTC 764 (setting [5]); 13.81 mm with C. jeikeium NCTC 11915 (setting [5]); 28.78 mm with Strep. mutans ATCC 25175 (50 μg DOSS + 200 μg TCC on one disc); 21.05 mm in assay [4] (setting [5]); 18.25 mm with C. xerosis NCTC 11861 (setting [5]). For the same compound, the DDA in the assay on C. striatum NCTC 764 worked out at 19.57 mm; with C. jeikeium NCTC 11915, 0.0 mm; in assay [3], 19.74 mm; with Strep. mutans ATCC 25175 (setting [6]) it was 24.1 mm; with Strep. mutans ATCC 25175 (200 μg per disc), 40.25 mm; in assay [4] it was 12.92 mm. Also, the DDA in the assay on C. xerosis NCTC 11861 is recorded as 0.0 mm. In the assay with P. acnes NCTC 737 [1], this compound registered an MBC of 62.5 µg/mL. Besides, in the assay with P. acnes NCTC 737 [1], the MIC/MBC ratio is 0.25. In addition, the MIC in the assay on P. acnes NCTC 737 [2] worked out at 15.6 µg/mL.
With `O=C(Nc1ccc(Cl)cc1)Nc1ccc(Cl)c(Cl)c1` [TCC, N-(4-chlorophenyl)-N′-(3,4-dichlorophenyl) urea], the DDA in the assay with C. striatum NCTC 764 came out at 14.08 mm; with C. jeikeium NCTC 11915 it was 0.0 mm; in assay [3] it was 14.71 mm; with Strep. mutans ATCC 25175 (setting [6]), 11.95 mm; in assay [4], 9.59 mm; in the assay on C. xerosis NCTC 11861, 11.65 mm. The MBC in the assay with P. acnes NCTC 737 [1] (Cutibacterium acnes, NCTC737, read-out: MBC) turned out to be 31.2 µg/mL (≈ 99 µM). Also, the MIC with P. acnes NCTC 737 [2] (Cutibacterium acnes, NCTC737, read-out: MIC) came to 0.12 µg/mL (≈ 0.38 µM).
